# In patent US20250339399A1, “SUPRAMOLECULAR SELF-ASSEMBLY SYSTEM” (Beijing Creatron Institute of Pharmaceutical Research Co., …, priority 2022, published 2025):
# Assay: Binary supramolecular self-assembly systems of polymer and target: guest concentration over incubation time (Comparative Example 2)
# Assay type: physicochemical
# Settings: binary system with 0.5% polymer 101; incubation 0.5 h
# Protocol: Experiments were conducted according to the steps in Comparative Example 1, and quantitative analysis was carried out using the analytical method for each target to investigate the regulation ability […] stacking.
row,SMILES,Concentration of the target in the solution measured after different incubation time
1,"CC1(C)CCC(CN2CCN(c3ccc(C(=O)NS(=O)(=O)c4ccc(NCC5CCOCC5)c([N+](=O)[O-])c4)c(Oc4cnc5[nH]ccc5c4)c3)CC2)=C(c2ccc(Cl)cc2)C1 [Venetoclax, venetoclax]",233600 ng/mL
2,"O=C1[C@@H]2[C@H]3CC[C@H](C3)[C@@H]2C(=O)N1C[C@@H]1CCCC[C@H]1CN1CCN(c2nsc3ccccc23)CC1 [Lurasidone, lurasidone]",13200 ng/mL

# Same assay, conditions: binary system with 0.5% polymer 101; incubation 3 h
row,SMILES,Concentration of the target in the solution measured after different incubation time
1,"CC1(C)CCC(CN2CCN(c3ccc(C(=O)NS(=O)(=O)c4ccc(NCC5CCOCC5)c([N+](=O)[O-])c4)c(Oc4cnc5[nH]ccc5c4)c3)CC2)=C(c2ccc(Cl)cc2)C1 [Venetoclax, venetoclax]",249500 ng/mL
2,"O=C1[C@@H]2[C@H]3CC[C@H](C3)[C@@H]2C(=O)N1C[C@@H]1CCCC[C@H]1CN1CCN(c2nsc3ccccc23)CC1 [Lurasidone, lurasidone]",13500 ng/mL

# Same assay, conditions: binary system with 0.5% polymer 101; incubation 6 h
row,SMILES,Concentration of the target in the solution measured after different incubation time
1,"CC1(C)CCC(CN2CCN(c3ccc(C(=O)NS(=O)(=O)c4ccc(NCC5CCOCC5)c([N+](=O)[O-])c4)c(Oc4cnc5[nH]ccc5c4)c3)CC2)=C(c2ccc(Cl)cc2)C1 [Venetoclax, venetoclax]",252600 ng/mL
2,"O=C1[C@@H]2[C@H]3CC[C@H](C3)[C@@H]2C(=O)N1C[C@@H]1CCCC[C@H]1CN1CCN(c2nsc3ccccc23)CC1 [Lurasidone, lurasidone]",9400 ng/mL

# Same assay, conditions: binary system with 0.5% polymer 102; incubation 0.5 h
row,SMILES,Concentration of the target in the solution measured after different incubation time
1,"CC1(C)CCC(CN2CCN(c3ccc(C(=O)NS(=O)(=O)c4ccc(NCC5CCOCC5)c([N+](=O)[O-])c4)c(Oc4cnc5[nH]ccc5c4)c3)CC2)=C(c2ccc(Cl)cc2)C1 [Venetoclax, venetoclax]",151600 ng/mL
2,"O=C1[C@@H]2[C@H]3CC[C@H](C3)[C@@H]2C(=O)N1C[C@@H]1CCCC[C@H]1CN1CCN(c2nsc3ccccc23)CC1 [Lurasidone, lurasidone]",15300 ng/mL

# Same assay, conditions: binary system with 0.5% polymer 102; incubation 3 h
row,SMILES,Concentration of the target in the solution measured after different incubation time
1,"CC1(C)CCC(CN2CCN(c3ccc(C(=O)NS(=O)(=O)c4ccc(NCC5CCOCC5)c([N+](=O)[O-])c4)c(Oc4cnc5[nH]ccc5c4)c3)CC2)=C(c2ccc(Cl)cc2)C1 [Venetoclax, venetoclax]",254900 ng/mL
2,"O=C1[C@@H]2[C@H]3CC[C@H](C3)[C@@H]2C(=O)N1C[C@@H]1CCCC[C@H]1CN1CCN(c2nsc3ccccc23)CC1 [Lurasidone, lurasidone]",12700 ng/mL

# Same assay, conditions: binary system with 0.5% polymer 102; incubation 6 h
row,SMILES,Concentration of the target in the solution measured after different incubation time
1,"CC1(C)CCC(CN2CCN(c3ccc(C(=O)NS(=O)(=O)c4ccc(NCC5CCOCC5)c([N+](=O)[O-])c4)c(Oc4cnc5[nH]ccc5c4)c3)CC2)=C(c2ccc(Cl)cc2)C1 [Venetoclax, venetoclax]",272100 ng/mL
2,"O=C1[C@@H]2[C@H]3CC[C@H](C3)[C@@H]2C(=O)N1C[C@@H]1CCCC[C@H]1CN1CCN(c2nsc3ccccc23)CC1 [Lurasidone, lurasidone]",13400 ng/mL

# Same assay, conditions: binary system with 0.5% polymer 103; incubation 0.5 h
row,SMILES,Concentration of the target in the solution measured after different incubation time
1,"CC1(C)CCC(CN2CCN(c3ccc(C(=O)NS(=O)(=O)c4ccc(NCC5CCOCC5)c([N+](=O)[O-])c4)c(Oc4cnc5[nH]ccc5c4)c3)CC2)=C(c2ccc(Cl)cc2)C1 [Venetoclax, venetoclax]",78600 ng/mL
2,"O=C1[C@@H]2[C@H]3CC[C@H](C3)[C@@H]2C(=O)N1C[C@@H]1CCCC[C@H]1CN1CCN(c2nsc3ccccc23)CC1 [Lurasidone, lurasidone]",7000 ng/mL

# Same assay, conditions: binary system with 0.5% polymer 103; incubation 3 h
row,SMILES,Concentration of the target in the solution measured after different incubation time
1,"CC1(C)CCC(CN2CCN(c3ccc(C(=O)NS(=O)(=O)c4ccc(NCC5CCOCC5)c([N+](=O)[O-])c4)c(Oc4cnc5[nH]ccc5c4)c3)CC2)=C(c2ccc(Cl)cc2)C1 [Venetoclax, venetoclax]",72900 ng/mL
2,"O=C1[C@@H]2[C@H]3CC[C@H](C3)[C@@H]2C(=O)N1C[C@@H]1CCCC[C@H]1CN1CCN(c2nsc3ccccc23)CC1 [Lurasidone, lurasidone]",5200 ng/mL

# Same assay, conditions: binary system with 0.5% polymer 103; incubation 6 h
row,SMILES,Concentration of the target in the solution measured after different incubation time
1,"CC1(C)CCC(CN2CCN(c3ccc(C(=O)NS(=O)(=O)c4ccc(NCC5CCOCC5)c([N+](=O)[O-])c4)c(Oc4cnc5[nH]ccc5c4)c3)CC2)=C(c2ccc(Cl)cc2)C1 [Venetoclax, venetoclax]",59500 ng/mL
2,"O=C1[C@@H]2[C@H]3CC[C@H](C3)[C@@H]2C(=O)N1C[C@@H]1CCCC[C@H]1CN1CCN(c2nsc3ccccc23)CC1 [Lurasidone, lurasidone]",4000 ng/mL

# Same assay, conditions: binary system with 0.5% polymer 106; incubation 0.5 h
row,SMILES,Concentration of the target in the solution measured after different incubation time
1,"CC1(C)CCC(CN2CCN(c3ccc(C(=O)NS(=O)(=O)c4ccc(NCC5CCOCC5)c([N+](=O)[O-])c4)c(Oc4cnc5[nH]ccc5c4)c3)CC2)=C(c2ccc(Cl)cc2)C1 [Venetoclax, venetoclax]",232200 ng/mL
2,"O=C1[C@@H]2[C@H]3CC[C@H](C3)[C@@H]2C(=O)N1C[C@@H]1CCCC[C@H]1CN1CCN(c2nsc3ccccc23)CC1 [Lurasidone, lurasidone]",4100 ng/mL

# Same assay, conditions: binary system with 0.5% polymer 106; incubation 3 h
row,SMILES,Concentration of the target in the solution measured after different incubation time
1,"CC1(C)CCC(CN2CCN(c3ccc(C(=O)NS(=O)(=O)c4ccc(NCC5CCOCC5)c([N+](=O)[O-])c4)c(Oc4cnc5[nH]ccc5c4)c3)CC2)=C(c2ccc(Cl)cc2)C1 [Venetoclax, venetoclax]",250500 ng/mL
2,"O=C1[C@@H]2[C@H]3CC[C@H](C3)[C@@H]2C(=O)N1C[C@@H]1CCCC[C@H]1CN1CCN(c2nsc3ccccc23)CC1 [Lurasidone, lurasidone]",3100 ng/mL

# Same assay, conditions: binary system with 0.5% polymer 106; incubation 6 h
row,SMILES,Concentration of the target in the solution measured after different incubation time
1,"CC1(C)CCC(CN2CCN(c3ccc(C(=O)NS(=O)(=O)c4ccc(NCC5CCOCC5)c([N+](=O)[O-])c4)c(Oc4cnc5[nH]ccc5c4)c3)CC2)=C(c2ccc(Cl)cc2)C1 [Venetoclax, venetoclax]",156800 ng/mL
2,"O=C1[C@@H]2[C@H]3CC[C@H](C3)[C@@H]2C(=O)N1C[C@@H]1CCCC[C@H]1CN1CCN(c2nsc3ccccc23)CC1 [Lurasidone, lurasidone]",1800 ng/mL

# Same assay, conditions: binary system with 0.5% polymer 107; incubation 0.5 h
row,SMILES,Concentration of the target in the solution measured after different incubation time
1,"CC1(C)CCC(CN2CCN(c3ccc(C(=O)NS(=O)(=O)c4ccc(NCC5CCOCC5)c([N+](=O)[O-])c4)c(Oc4cnc5[nH]ccc5c4)c3)CC2)=C(c2ccc(Cl)cc2)C1 [Venetoclax, venetoclax]",152200 ng/mL
2,"O=C1[C@@H]2[C@H]3CC[C@H](C3)[C@@H]2C(=O)N1C[C@@H]1CCCC[C@H]1CN1CCN(c2nsc3ccccc23)CC1 [Lurasidone, lurasidone]",3200 ng/mL

# Same assay, conditions: binary system with 0.5% polymer 107; incubation 3 h
row,SMILES,Concentration of the target in the solution measured after different incubation time
1,"CC1(C)CCC(CN2CCN(c3ccc(C(=O)NS(=O)(=O)c4ccc(NCC5CCOCC5)c([N+](=O)[O-])c4)c(Oc4cnc5[nH]ccc5c4)c3)CC2)=C(c2ccc(Cl)cc2)C1 [Venetoclax, venetoclax]",153100 ng/mL
2,"O=C1[C@@H]2[C@H]3CC[C@H](C3)[C@@H]2C(=O)N1C[C@@H]1CCCC[C@H]1CN1CCN(c2nsc3ccccc23)CC1 [Lurasidone, lurasidone]",2400 ng/mL

# Same assay, conditions: binary system with 0.5% polymer 107; incubation 6 h
row,SMILES,Concentration of the target in the solution measured after different incubation time
1,"CC1(C)CCC(CN2CCN(c3ccc(C(=O)NS(=O)(=O)c4ccc(NCC5CCOCC5)c([N+](=O)[O-])c4)c(Oc4cnc5[nH]ccc5c4)c3)CC2)=C(c2ccc(Cl)cc2)C1 [Venetoclax, venetoclax]",156800 ng/mL
2,"O=C1[C@@H]2[C@H]3CC[C@H](C3)[C@@H]2C(=O)N1C[C@@H]1CCCC[C@H]1CN1CCN(c2nsc3ccccc23)CC1 [Lurasidone, lurasidone]",1700 ng/mL

# Same assay, conditions: binary system with 0.5% polymer 110; incubation 0.5 h
row,SMILES,Concentration of the target in the solution measured after different incubation time
1,"CC1(C)CCC(CN2CCN(c3ccc(C(=O)NS(=O)(=O)c4ccc(NCC5CCOCC5)c([N+](=O)[O-])c4)c(Oc4cnc5[nH]ccc5c4)c3)CC2)=C(c2ccc(Cl)cc2)C1 [Venetoclax, venetoclax]",385500 ng/mL

# Same assay, conditions: binary system with 0.5% polymer 110; incubation 3 h
row,SMILES,Concentration of the target in the solution measured after different incubation time
1,"CC1(C)CCC(CN2CCN(c3ccc(C(=O)NS(=O)(=O)c4ccc(NCC5CCOCC5)c([N+](=O)[O-])c4)c(Oc4cnc5[nH]ccc5c4)c3)CC2)=C(c2ccc(Cl)cc2)C1 [Venetoclax, venetoclax]",534600 ng/mL

# Same assay, conditions: binary system with 0.5% polymer 110; incubation 6 h
row,SMILES,Concentration of the target in the solution measured after different incubation time
1,"CC1(C)CCC(CN2CCN(c3ccc(C(=O)NS(=O)(=O)c4ccc(NCC5CCOCC5)c([N+](=O)[O-])c4)c(Oc4cnc5[nH]ccc5c4)c3)CC2)=C(c2ccc(Cl)cc2)C1 [Venetoclax, venetoclax]",566200 ng/mL

# Assay: not given
# Settings: cited from earlier work
row,SMILES,LogD7.4 or Log P
1,"CC1(C)CCC(CN2CCN(c3ccc(C(=O)NS(=O)(=O)c4ccc(NCC5CCOCC5)c([N+](=O)[O-])c4)c(Oc4cnc5[nH]ccc5c4)c3)CC2)=C(c2ccc(Cl)cc2)C1 [Venetoclax, venetoclax]",6.88
2,"O=C1[C@@H]2[C@H]3CC[C@H](C3)[C@@H]2C(=O)N1C[C@@H]1CCCC[C@H]1CN1CCN(c2nsc3ccccc23)CC1 [Lurasidone, lurasidone]",3.43

# Assay: Guest molecule concentration after incubation in initial medium without polymer (Comparative Example 1)
# Assay type: physicochemical
# Settings: 0.5 h; 37° C.; pH 6.8 phosphate buffer
# Protocol: pH 2.0 hydrochloric acid, pH 4.5 acetate, and pH 6.5, pH 6.8, or pH 7.4 phosphate buffer solutions were prepared. The selection of each initial medium followed the principle that the solubility in the initial medium of the selected targets (or active ingredients) should low enough, but should meet the detection sensitivity and accuracy requirements of the corresponding analytical methods. Each buffer as initial media was placed in a 50 ml test tube with a stopper, shaken in a constant temperature air shaker at 37° C.±0.5° C., with an amplitude of 200 rpm, and incubated for 1 hour. […] Samples were taken at 0.5 h, 3 h and 6 h after incubation, centrifuged at 37° C., 13000 rpm for 5 minutes, and the supernatant was diluted at least 10 times with the mobile phase under the target analyte analytical method, filtered, the initial filtrate was discarded, and the continued filtrate was used as the test solution for injection analysis. The corresponding HPLC method under each target object item in Table 8 was used to determine the content of each target substance. When the solubility of the target in the initial medium is below the quantitative limit of the analytical method, a small amount of surfactant, such as sodium dodecyl sulfate (SDS), Tween20, or Tween80, can be added appropriately.
# The above targets were incubated at 37° C.±0.5° C. for different time in an initial medium without any polymer. Each solid target formed by molecular stacking was removed by centrifugation, and the supernatant was analyzed using the HPLC method under each target item (see Table 8). The theoretical addition concentration of each target when its supramolecular self-assembly system was built was determined by its maximum dose in clinical use.
row,SMILES,Concentration of guest molecule measured after different incubated time
1,"CC1(C)CCC(CN2CCN(c3ccc(C(=O)NS(=O)(=O)c4ccc(NCC5CCOCC5)c([N+](=O)[O-])c4)c(Oc4cnc5[nH]ccc5c4)c3)CC2)=C(c2ccc(Cl)cc2)C1 [Venetoclax, venetoclax]",19800 ng/mL

# Same assay, conditions: 3 h; 37° C.; pH 6.8 phosphate buffer
row,SMILES,Concentration of guest molecule measured after different incubated time
1,"CC1(C)CCC(CN2CCN(c3ccc(C(=O)NS(=O)(=O)c4ccc(NCC5CCOCC5)c([N+](=O)[O-])c4)c(Oc4cnc5[nH]ccc5c4)c3)CC2)=C(c2ccc(Cl)cc2)C1 [Venetoclax, venetoclax]",12400 ng/mL

# Same assay, conditions: 6 h; 37° C.; pH 6.8 phosphate buffer
row,SMILES,Concentration of guest molecule measured after different incubated time
1,"CC1(C)CCC(CN2CCN(c3ccc(C(=O)NS(=O)(=O)c4ccc(NCC5CCOCC5)c([N+](=O)[O-])c4)c(Oc4cnc5[nH]ccc5c4)c3)CC2)=C(c2ccc(Cl)cc2)C1 [Venetoclax, venetoclax]",9600 ng/mL
